Earlier results in patent US20250057829A1, “INHIBITORS OF TRPC6 FOR TREATING FOCAL SEGMENTAL GLOMERULOSCLEROSIS” (Boehringer Ingelheim International GmbH, priority 2023, published 2025).

Test system: adults and children with steroid resistant FSGS
Conditions: week 8, follow-up vs. baseline; cited from earlier work

Substance: mycophenolate mofetil/dexamethasone [MMF/DEX]
- reduction of UPCR: ~50%
